Values belong to the compound of their own block, whether it stands above or below them.
Columns and labels:
mAb 19G2 = assay: Binding of stilbene-tethered C-nucleosides to blue-fluorescent mAb 19G2 (fluorescence, crystal soak); parameters: species or system mice; settings: for emission of mAb 19G2 crystal after soaking: crystal soaked with ligand, UV lamp
Procedure: Each C-nucleoside was tested for the ability to bind to the blue-fluorescent monoclonal antibody (mAb) 19G2. […] Subsequently, we acquired X-ray crystallographic data on both complexes primarily to obtain information regarding positioning of the nucleobase moiety with regard to the protein framework. The structures of the 19G2-9 and 19G2-18 complexes were determined to a resolution of 2.45 Å and 2.20 Å, respectively (Table 4). In both cases, the antibody structures differ by an RMSD of 0.61 Å and 0.50 Å from that of the previously determined 19G2-12 complex. The stilbene portion of both 9 and 18 is clear in 2σ density and could be readily modeled into the density as the trans-isomer. For both complexes, binding site amino acid residues within 5 Å of the stilbene are observed to be in the same conformation as in 19G2-12.
X-ray crystallography. Crystals of mAb 19G2 were soaked overnight with a 0.25 mM solution of either 9 or 18 (DMF stock solutions) in mother liquor from the crystal growth (12% polyethylene glycol, 0.1 M sodium acetate pH 4.75, 0.3 M magnesium chloride) containing 5% DMF. Formation of the complex in the crystal was assayed by the appearance of blue fluorescence from soaked crystals when illuminated by a hand-held UV lamp at 312 nm (Spectronics Corp.; Westbury, N.Y.). The crystals were soaked in a cryobuffer consisting of 20% glycerol, 0.25 mM 9 or 18, mother liquor, and 5% DMF and flash frozen in liquid nitrogen. X-ray diffraction was collected in-house with an FRD X-ray generator and a RAXISIVF^++ detector. Data was processed and scaled using HKL software package. The previously determined structure of the antibody (PDB ID CODE 1FL3) was used as a starting model for refinement. Multiple rounds of rigid body refinement, B-factor refinement, Powell minimization, simulated annealing in CNS and manual rebuilding in O were performed.

[1] = Steady-state UV absorption, fluorescence excitation and emission spectra, quantum yield; format: physicochemical
Procedure: (A) UV absorption. (B) Fluorescence excitation. Note: The 19G2-2 complex and free 2 each required a separate y-axis scale for side-by-side comparison of peak shapes. (C) Fluorescence emission. See note for (B). In all cases, see Table 2 for experimental conditions. Steady-state excitation and emission spectra were recorded using an SLM 8100 spectrofluorimeter (Spectronics Instruments) with a bandpass of 4 nm for excitation and emission.

[2] = Picosecond time-resolved emission, time-correlated single photon counting; format: physicochemical
Procedure: Measurements were obtained with picosecond excitation at 318 nm. Decays were measured at 380 nm (free 2, 16H10 and 25E5 complexes) or 410 nm (19G2 complex) by time-correlated single photon counting. Decays were recorded in 4096 channels with a time increment of 18 ps/channel and were normalized relative to the number of counts recorded in the peak channel. See Table 3 for experimental conditions.
Normalized time-resolved emission profiles of the 20F2-2 complex were recorded at 370 nm (purple) and 480 nm (blue). The solid lines are multiexponential fits to each decay. […] Decays were recorded in 4096 channels with a time increment of 4.9 ps/channel and were normalized relative to the number of counts recorded in the peak channel. See Table 3 for experimental conditions.
Dynamic spectroscopy. Picosecond time-resolved emission spectroscopy was used to further probe the dynamics of blue-fluorescent antibodies. Time-resolved emission decay profiles of free 2 and bound to EP2 mAbs were measured at room temperature by time-correlated single-photon counting (Table 3, FIG. 16).

[3] = 77° K in hydrophobic solvents and 193° K in glycerol; cited from earlier work
[4] = 20 μM mAb, 10 μM of 2 (or free stilbene), PBS pH 7.4, 5% DMF, 20° C
[5] = 20 μM mAb, 10 μM of 2 (or free stilbene), PBS, 5% DMF, 20° C

quantum yield (φf) of complex with mAb 19G2 (mAb 19G2): ~0.80 | λem [1, 4]: 388 nm | λex [1, 4]: 325 nm | εmax [1, 5]: 33200 M⁻¹ cm⁻¹ | φf lower than blue-fluorescent antibody complexes ([1]; free 2 in fluid solution): 30-40 fold | φf (fluorescence quantum yield) ([1]; reference quinine bisulfate, 20 μM mAb, 10 μM of 2, PBS, 5% DMF, 20° C, accurate to ±10%): 0.02 | UV absorption bands ([1]; values in parentheses are shoulders/inflections, 20 μM mAb, 10 μM of 2, PBS, 5% DMF, 20° C): 320 nm | fluorescence decay components, τf ([2]; 20 μM mAb, 10 μM of 2 (or free 2), PBS, 5% DMF, 20° C): 0.071 ns | τr (radiative lifetime) ([2]; calculated from τf and φf): 3.6 ns | fluorescence lifetime ([2]; free in aqueous buffer, room temperature): ~70 ps
Structure (SMILES): O=C(O)CCCC(=O)Nc1ccc(/C=C/c2ccccc2)cc1 [compound 2, 5-oxo-5-[[4-[(1E)-2-phenylethenyl]phenyl]amino]-pentanoic acid]
kr (radiative rate constant) ([2]; calculated as the inverse of τr): 0.28 ns^−1 | knr (nonradiative rate constant) ([2]; calculated knr = [kr(1-φf)/φf]): 14 ns^−1

quantum yield (φf) of complex with mAb 19G2 (mAb 19G2): comparable | emission of mAb 19G2 crystal after soaking (mAb 19G2): blue emission | λem [1, 4]: 442 nm | εmax [1, 5]: 30000 M⁻¹ cm⁻¹
Structure (SMILES): O=C(CCCC(=O)Nc1ccc(/C=C/c2ccccc2)cc1)NCCc1ccc(C2C[C@H](O)[C@@H](CO)O2)cc1 (stereo partly drawn) [compound 9, N-[2-[4-[2-deoxy-D-erythro-pentofuranosyl]phenyl]ethyl]-N′-[4-[(1E)-2-phenylethenyl]phenyl]-pentanediamide, reference compound]

Structure (SMILES): C(=C\c1ccccc1)/c1ccccc1 [compound 1, trans-stilbene]
φf [3]: 0.75

quantum yield (φf) of complex with mAb 19G2 (mAb 19G2): comparable | emission of mAb 19G2 crystal after soaking (mAb 19G2): blue emission
Structure (SMILES): OCC1OC(c2ccc(COCCOCCOCc3ccc(C=Cc4ccccc4)cc3)cc2)CC1O [compound 18, 1,4-anhydro-2-deoxy-1-C-[4-[[2-[2-[[4-[(1E)-2-phenylethenyl]phenyl]methoxy]ethoxy]ethoxy]methyl]]phenyl]-D-erythro-pentitol]

Reference: patent US20040005649A1, “Anti-stilbene antibodies” (priority 2003, published 2004)
